Measured values: patent US20250352675A1, “CA-IX TARGETING FLUORESCENT PROBES” (BRACCO IMAGING S.P.A., priority 2022, published 2025)
Read-outs that look alike come from different tables or passages of the source.

Columns and labels:
[1] = molecular target: T1, recombinant bovine CAII enzyme (bCAII) (Bos taurus, UniProt P00921); assay: Dansylamide (DNSA) displacement fluorescence assay on carbonic anhydrase catalytic site; type: binding
T1 construct: purchased Sigma-Aldrich; host or cells: E. coli
T1 sequence (P00921 whole entry): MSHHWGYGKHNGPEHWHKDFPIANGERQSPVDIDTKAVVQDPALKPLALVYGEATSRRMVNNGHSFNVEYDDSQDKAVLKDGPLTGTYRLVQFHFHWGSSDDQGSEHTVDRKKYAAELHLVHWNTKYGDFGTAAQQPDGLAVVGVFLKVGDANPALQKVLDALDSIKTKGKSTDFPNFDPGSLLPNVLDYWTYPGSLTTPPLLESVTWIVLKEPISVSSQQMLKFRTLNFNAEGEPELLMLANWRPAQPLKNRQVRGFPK
Protocol: The binding affinity of the compounds of formula (I) to Carbonic Anhydrase (CA) catalytic site was determined to assess the targeting efficacy of the molecular vectors, even after labeling the targeting ligand with the fluorescent portion of the probe.
Such enzyme in fact is highly available and has a catalytic site with high degree of homology in different carbonic anhydrase isoforms (Aggarwal M. et al., J Enzyme Inhib Med Chem 2013; 28(2): 267-277).
The dissociation constant (Ko) of compounds of formula (I) for bCAII was estimated by performing a fluorescence-based assay, exploiting the drop of fluorescence deriving from the displacement of carbonic anhydrase-bound dansylamide (DNSA) in presence of competitors and was adapted for application in 96-well plates from Wang S C et al., Biochem Mol Biol Educ. 2006, 34(5): 364-368. […] In both cases DNSA is excited at about 320 nm. Thus, excitation of carbonic anhydrase aromatic residues (Trp) at 285 nm generates an emission at 340 nm, that is quenched in presence of bound DNSA. The quenching occurs by FRET (fluorescence resonance energy transfer) to bound DNSA, which is in turn excited, emitting at 460 nm.
Molecules that bind to CA in the same binding site of DNSA, such as sulfonamides or derivatives, competitively displace DNSA from CA. The degree of displacement is function of the affinity of competitors and can be followed through the drop of fluorescence at 460 nm.
In detail, 5-(Dimethylamino)-1-naphthalenesulfonamide (dansylamide, DNSA, Sigma-Aldrich 218898) was reconstituted in 20 mM Tris pH 8, aliquoted and stored at −20° C.; bCAII (recombinant, expressed in E. Coli, Sigma-Aldrich) was divided in aliquots and stored at −20° C.
DNSA fluorescence emission at 462 nm from each well was recorded after excitation at 285 nm (Trp wavelength of excitation) and consequent selective excitation of DNSA bound to bCAII by FRET. Fractional saturation of bCAII was experimentally determined through normalization of fluorescence data between 1 (no compounds) and 0 (maximal DNSA displacement by presence of binding competitors), according to the equation below: […]
where r is fractional saturation, FLobs is the recorded fluorescence intensity, FLmin is the fluorescence intensity recorded at maximal concentration of compounds, and FLmax is fluorescence recorded in absence of compounds.
The KD of CA-binding compounds (=KDcomp) was then derived by mathematical fitting of experimental data according to the equation: […]
Mathematical fitting was performed using Microsoft Excel Solver.
All compounds were tested in triplicate.

[2] = Optical characterization (excitation/emission maxima, molar extinction coefficient); type: physicochemical
Protocol: A dual-beam UV-VIS spectrophotometer (Lambda 40, Perkin Elmer) was used to determine the absorbance (Abs) of the compounds of the invention. Emission/excitation (Em/Ex) spectra were carried out on a spectrofluorometer (FluoroLog-3 1IHR-320, Horiba Jobin Yvon) equipped with an F-3018 integrating sphere accessory. The measurements were performed using an excitation wavelength at maximum absorbance of different dyes, and the sample was excited with a 450W Xenon Light Source. Detection was performed by photomultiplier tubes (PMT-NIR) cooled detector or by TBX-04 detector. Dye solutions were carefully prepared to have an absorbance lower than 0.1 (optical densities) to minimize re-absorption phenomena.
The compounds of the invention were characterized in terms of their optical properties in vitro in aqueous medium (i.e., water/PBS pH 7.4) and in a clinical chemistry control serum (Seronorm, Sero S A), mimicking the chemical composition and optical properties of human serum. All solutions were freshly prepared. In particular, the compounds of the invention are characterized by absorption maxima comprised in the range from about 750 nm to 780 nm.
The excitation and emission maxima in PBS and Seronorm and the molar extinction coefficient (E) in water of representative compounds of formula (I) are shown in Table I in comparison with the known CA-IX targeting fluorescent probe named Hypoxyfluor-1 (HF-1, for instance disclosed in Bioconjugate Chem 2018, 29, 3320-3331). […] Moreover, the extinction coefficients were higher than […] for all compounds.

[3] = molecular target: T2, CA-IX (Homo sapiens, UniProt Q16790); assay: Cellular binding assessment by flow cytometry on CA-IX expressing HT-29 cells; details: 1 hour 30 min on ice, read-out: CA-IX receptor affinity (KD, to HT-29 cells)
T2 construct: host or cells: HT-29 human colorectal adenocarcinoma cells
Protocol: Human colon adenocarcinoma HT-29 cells (ATCC) used for the cellular binding experiments were cultured in McCoy's 5A medium (Sigma-Aldrich), supplemented with 10% HyClone Fetal Clone III (Euroclone), 2 mM L-glutamine (Sigma-Aldrich), 100 IU/mL penicillin, 0.1 mg/mL streptomycin, 0.25 μg/mL amphotericin B (Antibiotic-Antimycotic solution, Life Technologies) and cells were grown at 37° C. in humidified atmosphere enriched with 5% CO2. DPBS without MgCl2 and CaCl2 (Sigma-Aldrich) was used for cell rinsing.
Indeed, by using the anti-human CA-IX antibody MAB2188 (R&D Systems) and the DAKO […], according to the instruction of the datasheet, HT-29 cells were estimated to express about 150,000 CA-IX molecules per cell. Thus, HT-29 cells were used to measure the binding of all compounds to CA-IX, expressed in its physiological environment at the cell-surface. Briefly, HT-29 cells were detached with StemPro® Accutase® Cell Dissociation Reagent (Life Technologies), collected in DPBS and counted. At least 2·10^5 cells were placed in 1.5 mL tubes on ice and resuspended in 50-100 μL of cold FACS buffer (eBioscience™ Flow Cytometry Staining Buffer, Invitrogen) containing scalar concentrations of compounds (compound 1: range 1-5 μM; compounds 2 and 3: range 0-20 μM). After incubation (1 hour and 30 min on ice in the dark), cells were rinsed 3 times in 300 μL of cold FACS buffer by centrifugation (5 min, 4° C., 350 RCF), discarding the supernatant. Cell pellets were then resuspended in 200 μL of cold FACS buffer (or in a suitable volume in order to obtain no more than 1000 recorded events per μL during FACS analysis) and analyzed with the flow cytometer Accuri™ C6 (BD Biosciences). The mean cell-associated fluorescence was plotted against concentration and the dissociation constant at equilibrium (Ko) was inferred by mathematical fitting with GraphPad Prism v.9 software, according to the following equation: […]
where Bmax is the maximum specific binding in the same units as Y. KD is the equilibrium dissociation constant, in the same units as X. NS is the slope of nonspecific binding in Y units divided by X units. Background is the amount of nonspecific binding with no added Compound.
All compounds were analyzed in at least three independent experiments. The calculated KD are summarized in Table III and compared with the one obtained for HF-1.

[4] = tested on: HT-29 tumor; assay: Ex vivo tumor-to-background ratio in excised HT-29 tumors; parameters: species or system mice; details: 1 nmol/mouse, samples collected 24 hours after administration; tumor vs hind limb muscle
Protocol: (§1) The ex vivo biodistribution of the representative compounds 1, 2 and 3 and of the reference compound HF-1 (at 1 nmol/mouse) was evaluated in HT-29 excised tumors and tissues at the end of the in vivo OI sessions 24 hours post intravenous administration. At the end of the in vivo experiment, animals were euthanized by overdose of gaseous anesthesia followed by cervical dislocation. Tumor tissue, muscle, and other organs of interest were removed for ex vivo fluorescent signal measurements. The fluorescence signal intensity was measured by the IVIS Spectrum system. Regions of interest (ROIs) were drawn around each organ and tumor using the Living Image Software (PerkinElmer) and evaluating signal intensity in the tissues (expressed as Average Radiant Efficiency). The ratio between the fluorescence signal in the organs and tumor was then calculated to assess the contrast to hind limb muscle (representing the background).

[5] = Ex vivo biodistribution, organ-to-muscle ratio; type: in vivo, mice; details: 1 nmol/mouse, 24 hours after administration
Protocol: as §1
Moreover, FIG. 6 (b) and Table VIII show the accumulation and distribution of the fluorescent probes in the dissected organs, reporting the ex vivo values of organs-to-muscle ratio from samples collected at 24 hours after the administration of representative compounds 1, 2 and 3 and of the reference compound HF-1 (1 nmol/mouse).

[6] = Optical characterization (excitation/emission maxima, molar extinction coefficient); type: physicochemical; details: in water
[7] = injection into the patient; cited from earlier work

## CN(C)c1cccc2c(S(N)(=O)=O)cccc12 [DNSA, 5-(Dimethylamino)-1-naphthalenesulfonamide, reference compound]
[1]; previously experimentally determined, read-out: dissociation constant at equilibrium of DNSA (KDDNSA)
  Kd: 0.17 µM

## CC1(C)C(/C=C/C2=C(Oc3ccc(CCC(=O)NCCCCCCCC(=O)Nc4nnc(S(N)(=O)=O)s4)cc3)C(=C/C=C3/N(CCCCS(=O)(=O)O)c4ccc(S(=O)(=O)O)cc4C3(C)C)/CCC2)=[N+](CCCCS(=O)(=O)[O-])c2ccc(S(=O)(=O)O)cc21 [HF-1, reference compound]
[2]; PBS pH 7.4
  Max Em: 798 nm
  Max Ex: 772 nm
[2]; Seronorm
  Max Em: 808 nm
  Max Ex: 792 nm
[1]; 0.25 μM bCAII, 5 μM DNSA, 20 mM Tris pH 8, triplicate, read-out: CAII receptor affinity (KD)
  Kd: 0.0095 ± 0.001 µM
[3]
  Kd: 0.115 ± 0.008 µM
[4]
  ex vivo TBR ± SD, HT-29 tumor: 3.1 ± 0.3
[5]
  Organ-to-muscle ratio, intestine: 2.2 ± 1.3
  Organ-to-muscle ratio, kidney: 2.4 ± 0.3
  Organ-to-muscle ratio, liver: 5.7 ± 0.2
  Organ-to-muscle ratio, skin: 1.4 ± 0.0
  Organ-to-muscle ratio, spleen: 1.4 ± 0.3
  Organ-to-muscle ratio, stomach: 4.0 ± 1.7
[6]
  molar extinction coefficient (ε): 255000 M⁻¹ cm⁻¹

## ^124I-cG250: chimeric version of monoclonal antibody G250 labelled with the radionuclide 124I
[7]
  time after injection to reach tumor/blood ratios suitable for imaging: 2 to 7 days
